Measured values: ChEMBL document CHEMBL1156452, “Minocycline down-regulates MHC II expression in microglia and macrophages through inhibition of IRF-1 and protein kinase C (PKC)alpha/betaII” (J Biol Chem, 2007)
Blank lines part the entries; values can stand above or below the compound they belong to. Calls of active or inactive are those of the source. The calls are words filed in the database; no cut-off is given here.

Key:
[1] = Decrease in IFN-gamma-induced MHC2 expression in Sprague-Dawley rat primary microglial cells at 1.3 uM; assay type: cell-based; design: scale not given: the % may be the effect or the level left; settings: Microglia
[2] = molecular target: Protein kinase C alpha type (Homo sapiens, UniProt P17252); assay: Inhibition of PKCalpha
[3] = molecular target: Protein kinase C beta type (Homo sapiens, UniProt P05771); assay: Inhibition of PKCbeta1
Protein kinase C beta type, sequence (P05771 whole entry): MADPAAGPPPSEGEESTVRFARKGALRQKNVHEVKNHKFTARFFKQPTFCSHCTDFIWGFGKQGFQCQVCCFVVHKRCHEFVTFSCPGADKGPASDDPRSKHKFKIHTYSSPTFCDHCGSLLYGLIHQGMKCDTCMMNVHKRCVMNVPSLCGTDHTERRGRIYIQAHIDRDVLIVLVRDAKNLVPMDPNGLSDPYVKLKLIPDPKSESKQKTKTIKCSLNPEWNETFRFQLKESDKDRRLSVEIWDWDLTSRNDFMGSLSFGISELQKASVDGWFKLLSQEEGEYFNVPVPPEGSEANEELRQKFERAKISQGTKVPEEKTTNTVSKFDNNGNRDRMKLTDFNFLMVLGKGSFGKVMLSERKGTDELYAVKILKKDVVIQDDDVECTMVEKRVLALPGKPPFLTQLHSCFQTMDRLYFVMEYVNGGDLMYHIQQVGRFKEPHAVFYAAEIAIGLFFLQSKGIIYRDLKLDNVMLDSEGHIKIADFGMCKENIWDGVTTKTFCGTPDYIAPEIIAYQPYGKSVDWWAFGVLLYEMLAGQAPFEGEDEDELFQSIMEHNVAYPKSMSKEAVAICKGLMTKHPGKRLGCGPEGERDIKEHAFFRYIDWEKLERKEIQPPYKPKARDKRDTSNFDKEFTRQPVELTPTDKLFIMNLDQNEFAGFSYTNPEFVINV

Microglia = assay: Inhibition of IFN-gamma-induced IFN-gamma regulatory factor levels in Sprague-Dawley rat primary microglial cells by Western blotting; assay type: functional, cell-based
Rattus norvegicus [4] = organism: Rattus norvegicus; assay: Suppression of IFN-gamma-induced PKCalpha/beta2 nuclear translocation in Sprague-Dawley rat primary microglial cells at 1.3 uM by Western blotting
[5] = molecular target: T1, Interferon regulatory factor 1 (Rattus norvegicus) (UniProt P23570); assay: Suppression of IFN-gamma-induced IFN-gamma regulatory factor 1 nuclear translocation in Sprague-Dawley rat primary microglial cells at 1.3 uM by Western blotting
T1 sequence (whole entry): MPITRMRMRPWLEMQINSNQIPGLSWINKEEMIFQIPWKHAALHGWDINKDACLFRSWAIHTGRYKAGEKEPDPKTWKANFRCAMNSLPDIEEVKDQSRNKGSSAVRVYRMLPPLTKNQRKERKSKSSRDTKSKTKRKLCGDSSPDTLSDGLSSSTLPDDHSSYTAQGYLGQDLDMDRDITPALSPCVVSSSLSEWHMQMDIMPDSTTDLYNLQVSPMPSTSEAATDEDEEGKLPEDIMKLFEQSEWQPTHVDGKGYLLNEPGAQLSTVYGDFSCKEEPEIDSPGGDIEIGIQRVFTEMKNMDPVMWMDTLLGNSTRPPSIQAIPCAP

Macrophage [6] = assay: Inhibition of MHC2 expression in Sprague-Dawley rat peritoneal macrophages at 1.3 uM after 24 hrs by immunostaining; assay type: functional, cell-based
[7] = Decrease in IFN-gamma-induced MHC2 protein levels in Sprague-Dawley rat primary microglial cells at 1.3 uM by Western blotting; assay type: functional, Microglia; design: scale not given: the % may be the effect or the level left
Rattus norvegicus [8] = assay: Decrease in number of MOG-induced inflammatory lesions in spinal cord of dark agouti rat experimental allergic encephalomyelitis model at 45 mg/kg, ip administered twice a day at the first day of clinical signs and once a day for 14 days by hematoxylin and eosin staining; assay type: functional, organism-based; design: dose 45 mg/kg
Rattus norvegicus [9] = assay: Decrease in size of MOG-induced inflammatory lesions in spinal cord of dark agouti rat experimental allergic encephalomyelitis model at 45 mg/kg, ip administered twice a day at the first day of clinical signs and once a day for 14 days by hematoxylin and eosin staining; assay type: functional, organism-based; design: dose 45 mg/kg
Rattus norvegicus [10] = assay: Decrease in accumulation of CD11b+ cells in spinal cord of dark agouti rat experimental allergic encephalomyelitis model at 45 mg/kg, ip administered twice a day at the first day of clinical signs and once a day for 14 days by immunostaining; assay type: functional; design: scale not given: the % may be the effect or the level left; settings: route intraperitoneal
Rattus norvegicus [11] = assay: Decrease in accumulation of MHC 2+ cells in spinal cord of dark agouti rat experimental allergic encephalomyelitis model at 45 mg/kg, ip administered twice a day at the first day of clinical signs and once a day for 14 days by immunostaining; assay type: functional; design: scale not given: the % may be the effect or the level left; settings: route intraperitoneal
[12] = Decrease in IFN-gamma-induced MHC2 expression in Sprague-Dawley rat primary microglial cells at 100 uM; assay type: functional, cell-based; design: scale not given: the % may be the effect or the level left; settings: Microglia
[13] = Decrease in IFN-gamma-induced MHC2 protein levels in Sprague-Dawley rat primary microglial cells at 100 uM by Western blotting; assay type: functional, Microglia; design: scale not given: the % may be the effect or the level left
[14] = Decrease in IFN-gamma-induced MHC2 mRNA levels in Sprague-Dawley rat primary microglial cells at 100 uM after 24 hrs by RT-PCR; assay type: functional, Microglia; design: scale not given: the % may be the effect or the level left
[15] = Decrease in IFN-gamma-induced CIITA mRNA expression in Sprague-Dawley rat primary microglial cells at 100 uM after 24 hrs by RT-PCR; assay type: functional, cell-based; settings: Microglia
Rattus norvegicus [16] = organism: Rattus norvegicus; assay: Reduction in IFN-gamma-induced PKCalpha/beta2 phosphorylation in Sprague-Dawley rat primary microglial cells at 100 uM by Western blotting
Macrophage [17] = assay: Inhibition of MHC2 expression in Sprague-Dawley rat peritoneal macrophages at 100 uM after 24 hrs by immunostaining; assay type: functional, cell-based
[18] = molecular target: Protein kinase C alpha type (Rattus norvegicus) (UniProt P05696); assay: Decrease in PKCalpha phosphorylation in Sprague-Dawley rat peritoneal macrophages at 100 uM after 24 hrs
Rattus norvegicus [19] = organism: Rattus norvegicus; assay: Suppression of IFN-gamma-induced PKCalpha/beta2 nuclear translocation in Sprague-Dawley rat primary microglial cells at 100 uM by Western blotting
[20] = molecular target: T1, Interferon regulatory factor 1 (Rattus norvegicus); assay: Suppression of IFN-gamma-induced IFN-gamma regulatory factor 1 nuclear translocation in Sprague-Dawley rat primary microglial cells at 100 uM by Western blotting

SMILES: Cn1c2ccccc2c2c3c(c4c5ccccc5n(CCC#N)c4c21)CNC3=O [GO-6976]
Activity [1]: 55%
IC50 [2]: 2.3 nM
IC50 [3]: 6.2 nM
Activity (Microglia): Active
Activity (Rattus norvegicus [4]): Active
Activity [5]: Active
Activity (Macrophage [6]): Active
Activity [7]: 80%

Activity (Rattus norvegicus [16]): Active
Activity [18]: Active
Activity (Rattus norvegicus [19]): Active
Activity [20]: Active
SMILES: CN(C)c1ccc(O)c2c1C[C@H]1C[C@H]3[C@H](N(C)C)C(O)=C(C(N)=O)C(=O)[C@@]3(O)C(O)=C1C2=O [MINOCYCLINE]
Activity (Rattus norvegicus [8]): Active
Activity (Rattus norvegicus [9]): Active
Activity (Rattus norvegicus [10]): 24%
Activity (Rattus norvegicus [11]): 42%
Activity [12]: 55%
Activity [13]: 47%
Activity [14]: 45%
Activity [15]: Active
Activity (Macrophage [17]): Active
